In patent US5616615A, “Enaminone esters” (priority 1995, dated 1997):
Like-named read-outs stand apart in the source and are kept apart here.

Legend:
seizures = experiment: Anticonvulsant evaluation (ASP phase I / overall); format: in vivo, mice; settings: Mus musculus, ip; Phase I; read-out: ASP Classification
Protocol: (§1) The first phase of the ADD Program involved performing tests on male Carworth Farms #1 mice. […] Three tests were performed:
(§2) Maximal electroshock seizures are elicited with a 60-cycle alternating current of 50 mA intensity (5-7 times that necessary to elicit minimal electroshock seizures) delivered via corneal electrodes for 0.2 seconds. A drop of 0.9% saline is instilled in the eye prior to application of the electrodes in order to […].
The animal is observed for 30 minutes.

[1] = test system: Maximal electroshock seizures; experiment: MES maximal electroshock seizure test, mice ip; format: in vivo; settings: for responders at 300 mg/kg / responders at 100 mg/kg / responders at 3 mg/kg / responders at 10 mg/kg: Mus musculus, ip; for responders at 300 mg/kg / responders at 3 mg/kg: read-out: MES, animals protected/tested; for responders at 100 mg/kg / responders at 10 mg/kg: read-out: MES, animals protected/tested (converted)
Protocol: Three tests were performed:
1. MES--Electroshock Seizure Test
as §2

[2] = test system: Subcutaneous Pentylenetetrazol seizure; experiment: sc Met subcutaneous pentylenetetrazol (Metrazol) seizure test, mice; format: in vivo; settings: Mus musculus, sc, read-out: scMet, animals protected/tested (converted)
Protocol: 2. sc Met--Subcutaneous Pentylenetetrazol (Metrazol^R) Seizure Test
The animal is observed for 30 minutes. Failure to observe even a threshold seizure (a single episode of clonic spasms of at least 5 seconds duration) is defined as protection and the results are expressed as the number of animals protected/the number of animals tested.

in vivo [3] = settings: mouse, in vivo
Protocol: as §1
In the second phase of the ADD program protocol, estimates of anticonvulsant activity and neurotoxicity are quantified. The median effective dose (ED50) in the MES, sc Met, and rotorod test is determined. In the case of a compound with apparent activity in only one anticonvulsant test, testing is carried out in the other up to, and in some cases beyond, doses which produce neurological deficit. Compounds which fail to produce minimal neurological deficit are tested whenever possible to doses ten times their lowest anticonvulsant ED50. […] The rotorod ED50 is determined at the time of the peak neurologic deficit.

[4] = test system: Maximal electroshock seizures; experiment: Phase VI oral MES test, rats; format: in vivo; settings: Rattus norvegicus, oral, 50 mg/kg, read-out: MES, animals protected/tested (converted)
Source text: as §2
(§3) This oral screen is designated as phase VI.

in vivo [5] = settings: rat, po, 50 mg/kg
Source text: as §3

Compound | minimal effective dose (seizures) [mg/kg] | responders at 300 mg/kg ([1]; 0.5 h, 30 min) [%] | responders at 100 mg/kg ([1]; 2 h, Phase II, 2.00 h) [%] | responders at 100 mg/kg ([1]; 3 h, Phase II, 3.00 h) [%] | responders at 300 mg/kg ([1]; 4 h, 4 h) [%] | responders at 300 mg/kg ([2]; 0.5 h, 30 min) [%] | responders at 300 mg/kg ([2]; 4 h, 4 h) [%] | Tox (rotorod), animals toxic/tested (in vivo [3]; 100 mg/kg) | responders at 50 mg/kg ([4]; 0.5 h, 0.50 h) [%] | responders at 50 mg/kg ([4]; 0.25 h) [%] | responders at 50 mg/kg ([4]; 1.00 h) [%] | responders at 50 mg/kg ([4]; 2.00 h) [%] | Tox, animals toxic/tested (in vivo [5]) | responders at 100 mg/kg ([1]; 0.5 h, 30 min) [%] | responders at 3 mg/kg ([1]; 0.5 h, Phase II, 0.50 h) [%] | responders at 10 mg/kg ([1]; 0.5 h, Phase II, 0.50 h) [%] | responders at 100 mg/kg ([1]; 4 h, 4 h) [%] | responders at 100 mg/kg ([2]; 0.5 h, 30 min) [%] | responders at 100 mg/kg ([2]; 4 h, 4 h) [%] | Tox (rotorod), animals toxic/tested (in vivo [3]; 3 mg/kg) | further results
COC(=O)C1C(=O)C=C(Nc2ccc([N+](=O)[O-])cc2)CC1(C)C (stereo not shown) [Compound 118] | > 100 | 0 | 0 | 0 | 100 | 0 | 0 | 0/2 | – | – | – | – | – | – | – | – | – | – | – | – | –
COC(=O)C1C(=O)C=C(Nc2ccc(C(F)(F)F)cc2)CC1(C)C (stereo not shown) [Compound 121] | < 100 | 100 | – | – | 100 | 0 | 0 | – | 75 | 75 | 100 | 100 | 0/4 | 100 | 0 | 0 | 100 | 0 | 0 | 0/4 | Tox (rotorod), animals toxic/tested (in vivo [3]; 10 mg/kg): 0/4
CCOC(=O)C1C(=O)C=C(Nc2ccc(Cl)cc2)CC1C (stereo not shown) [Compound 122] | < 100 | 100 | – | – | 100 | 100 | 0 | – | 100 | 75 | 75 | 100 | 0/4 | 100 | 0 | 25 | 0 | 0 | 0 | 0/4 | responders at 10 mg/kg ([1]; 0.25 h, mice ip, 0.25 h): 75%; responders at 10 mg/kg ([1]; 0.5 h, mice ip, 0.50 h): 75%; responders at 10 mg/kg ([1]; 1 h, mice ip, 1.00 h): 100%; responders at 10 mg/kg ([1]; 2 h, mice ip, 2.00 h): 25%; responders at 10 mg/kg ([1]; 4 h, mice ip, 4.00 h): 25%; anti-MES protecting ability ([1]; Phase I): showed anti-MES protecting ability; responders at 300 mg/kg ([2]; 0.5 h, 30 min, second trial): 50%; Tox (rotorod), animals toxic/tested (in vivo [3]; 10 mg/kg): 0/4
CCOC(=O)C1C(=O)C=C(Nc2cc(OC)ccc2OC)CC1C (stereo not shown) [Compound 128] | > 100 | 100 | – | – | 0 | 0 | 0 | 0/2 | – | – | – | – | – | – | – | – | – | – | – | – | responders at 100 mg/kg ([1]; 0.25 h, Phase II, 0.25 h): 0%; responders at 100 mg/kg ([1]; 1 h, Phase II, 1.00 h): 0%
CCc1ccc(NC2=CC(=O)CC(C)(C)C2)cc1 [Compound 140] | > 100 | 0 | 0 | 0 | 100 | 0 | 0 | 0/2 | – | – | – | – | – | – | – | – | – | – | – | – | –
